Source: patent US6673354B2, “Compositions and methods for treating papillomavirus-infected cells” (priority 1998, dated 2004)

Legend:
[1] = biological target: T1, interaction between HPV16 E1 and E2 (Human papillomavirus type 16, UniProt P03114); experiment: In vitro HPV E1-E2 binding assay (co-immunoprecipitation / Western blot), HPV16 E1 and HPV16 E2
T1 construct: made in house; host or cells: Hi-Five insect cells infected with recombinant baculovirus (pVL1392); nuclear extracts
Procedure: (§1) In vitro HPV E1-E2 binding assay. 300-500 ng protein from HPV16 or HPV11 EE-E1 expressing recombinant baculovirus infected cell nuclear extracts and 80-120 ng from HPV E2 baculovirus infected cell nuclear extracts were incubated in 500 μl NET-gel buffer (50 mM Tris-HCl pH7.5, 150 mM NaCl, 0.1% NP-40, 1 mM EDTA, 0.25% gelatin) at 4° C. for one hour. 1-2 μg anti-EE monoclonal antibody was added and incubated with shaking at 4° C. for one hour. Immune complexes were precipitated with protein-G agarose beads and washed twice for 30 minutes with ice cold NET-gel buffer. Precipitated proteins were detected by Western blot using appropriate primary antibodies and anti-rabbit IgG HRP or anti-mouse IgG HRP (Amersham). Membranes were blocked for one hour in TNET (10 mM Tris 7.5, 2.5 mM EDTA, 50 mM NaCl, 0.1% Tween-20) containing 4% (w/v) dry milk. Washes and antibody reactions were carried out in TNET, and proteins were visualized by chemiluminescence (Reneaissance ECL, NEN) and autoradiography. Bands were quantitated using the NIH image program.
Therefore, we reasoned that a peptide encompassing this domain of HPV16 E2 might inhibit interaction between HPV16 E1 and E2, thereby inhibiting HPV16 DNA replication (FIG. 5). In order to test this possibility, HPV16 E2 and epitope tagged full length HPV16 E1 (EE16-E1) proteins were expressed separately using baculovirus vectors. EE-E1 and associated E2 proteins were immunoprecipitated using an anti-EE epitope monoclonal antibody. Precipitated E2 was detected by Western blot using polyclonal antiserum raised to the DNA binding domain of HPV16 E2 (35). As shown in lane 2 of FIG. 6A, E2 co-immunoprecipitated with EE16-E1, but was not precipitated by the EE epitope antibody in the absence of EE16-E1 (lane 1). Peptides encompassing HPV16 E2 amino acids 29-51 (E2N-WP23) or residues 33-47 (E2N-WP15) of HPV16 E2 were then tested for inhibition of E1-E2 interaction. These peptide sequences were derived from the sequence of HPV16 E2, and were based on an alignment of amino terminal residues that are conserved among the papillomavirus E2 proteins (FIG. 5). […] Both the HPV16 E2 protein itself and the E2 derived peptides act specifically in these assays, since the E39A replication defective HPV16 E2 mutant bound only slightly to EE16-E1 (lanes 14). […] These peptides are named E2N-MP23 and E2N-MP15, respectively (see FIG. 5). […] We have previously shown that a domain spanning amino acids 421-647 of the HPV16 E1 carboxy terminus is necessary and sufficient for E2 interaction (45).

[2] = biological target: T2, interaction between HPV11 E1 and HPV16 E2 (Human papillomavirus 11, UniProt P04014); experiment: In vitro HPV E1-E2 binding assay, HPV11 E1 and HPV16 E2
T2 construct: made in house; host or cells: Hi-Five insect cells infected with recombinant baculovirus (HPV-11 EE-E1 virus a gift from Louise Chow); nuclear extracts
Procedure: as §1
(§2) Very little is known about the physical properties of domains within the papillomavirus E1 and E2 proteins that are involved in intermolecular recognition and association. […] The effect of the E2N-WP15 peptide on these interactions was also assessed. […]

HPV11 E1/E2 interaction = biological target: T3, HPV11 E1/E2 interaction (Human papillomavirus 11, UniProt P04014); experiment: In vitro HPV E1-E2 binding assay, HPV11 E1 and HPV11 E2
T3 construct: made in house; host or cells: Hi-Five insect cells infected with recombinant baculoviruses (gift from Louise Chow); nuclear extracts
Procedure: as §1, §2

[3] = test system: in vitro HPV16 DNA replication; experiment: In vitro replication of HPV16 DNA (293 cell extract, EE-E1, HPV16 E2); type: biochemical; settings: 40 ng EE-E1 and 6 ng HPV16 E2, FIG. 7
Procedure: (§3) In vitro replication reactions. In vitro replication reactions were essentially as described by Kuo et al. (18) in 25 μl reactions at 37° C. for indicated times. Standard reactions were for 2 hours, and were terminated by addition of 200 μl stop solution (20 mM Tris-HCl pH 7.5, 10 mM EDTA, 0.1% SDS, and 20 μg/ml RNase A). After incubation at 37° C. for 15 minutes, proteinase K was added (200 μg/ml) and incubation was continued 30 minutes. Samples were extracted with 250 μl phenol/chloroform/isoamyl alcohol (25:24:1), ethanol precipitated, washed with 70% ethanol, dried, resuspended in 20-30μl TE, and analyzed on a 0.8% agarose gel (TAE). The agarose gel was dried onto Hybond N+ membrane (Amersham), and replicated DNA was visualized by autoradiography. Bands were quantitated by Phosphorimager analysis. Replication templates were pKS7838-7905 (nt7838-7905/1-130) containing the HPV16 replication origin, and pUC7874-99 containing the HPV11 origin of replication (nt7874-7933/1-99). pUC7874-99 was a generously provided by Dr. Louise Chow.
We sought to establish a system for the study of HPV16 DNA replication in vitro, and to determine whether specific interaction between HPV16 E1 and E2 was required for HPV16 DNA replication in this system. […] As has been documented for other papillomavirus E1 proteins, some replication was observed using relatively large amounts of E1 in the absence of E2 (lanes 2 through 7) (6, 16, 22, 33, 40, 48). […] Replication in this assay is ori-dependent, since the small amount of replication of the pKS plasmid lacking the HPV16 origin detected at high concentrations of EE-E1 (FIG. 3B, lanes 1-6) was not stimulated by E2 (FIG. 1B, lanes 7-12).
Since the E2N-WP23 and E2N-WP 15 peptides could inhibit interaction between […] E1 and E2, their ability to inhibit in vitro HPV16 DNA replication was also tested (FIGS. 7A and 7B).

[4] = test system: HPV16 E2/HPV11 E1 dependent replication of the HPV11 origin; experiment: In vitro replication of the HPV11 origin with HPV11 E1 and HPV16 E2; type: biochemical
Procedure: as §3
The ability of the E2N-WP15 peptide to inhibit HPV11 E1 mediated replication in vitro was also tested. As shown in FIG. 7B (lanes 1-9), HPV11 E1 could cooperate with HPV16 E2 in supporting dose responsive in vitro replication of the HPV11 ori. […]

[5] = biological target: T4, epitope tagged full length HPV16 E1 (EE16-E1) (human papillomavirus type 16, UniProt P03114 1-649); experiment: co-immunoprecipitation with anti-EE antibody (data not shown); pair read as HPV16 E1 with HPV11 E2
T4 construct: range 1-649; also called EE-E1; HPV16 EE-E1
T4 sequence: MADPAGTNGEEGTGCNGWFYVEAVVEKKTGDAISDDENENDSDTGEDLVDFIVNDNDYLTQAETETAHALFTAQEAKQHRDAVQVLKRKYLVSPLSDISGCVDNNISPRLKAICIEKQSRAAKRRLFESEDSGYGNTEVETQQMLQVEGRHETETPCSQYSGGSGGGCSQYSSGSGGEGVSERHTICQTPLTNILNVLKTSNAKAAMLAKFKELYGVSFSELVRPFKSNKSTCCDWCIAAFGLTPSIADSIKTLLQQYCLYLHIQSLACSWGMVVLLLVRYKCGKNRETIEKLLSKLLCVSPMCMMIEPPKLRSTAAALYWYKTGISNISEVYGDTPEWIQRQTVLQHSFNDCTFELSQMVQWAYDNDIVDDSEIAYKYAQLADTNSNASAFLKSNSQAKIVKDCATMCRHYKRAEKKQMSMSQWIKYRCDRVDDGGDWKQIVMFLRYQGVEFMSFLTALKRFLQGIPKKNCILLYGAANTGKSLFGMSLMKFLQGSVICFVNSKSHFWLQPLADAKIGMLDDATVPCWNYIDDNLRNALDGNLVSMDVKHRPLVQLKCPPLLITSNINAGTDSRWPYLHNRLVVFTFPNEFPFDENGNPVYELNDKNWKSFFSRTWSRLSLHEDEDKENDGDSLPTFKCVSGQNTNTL

T3 sequence (P04014 whole entry): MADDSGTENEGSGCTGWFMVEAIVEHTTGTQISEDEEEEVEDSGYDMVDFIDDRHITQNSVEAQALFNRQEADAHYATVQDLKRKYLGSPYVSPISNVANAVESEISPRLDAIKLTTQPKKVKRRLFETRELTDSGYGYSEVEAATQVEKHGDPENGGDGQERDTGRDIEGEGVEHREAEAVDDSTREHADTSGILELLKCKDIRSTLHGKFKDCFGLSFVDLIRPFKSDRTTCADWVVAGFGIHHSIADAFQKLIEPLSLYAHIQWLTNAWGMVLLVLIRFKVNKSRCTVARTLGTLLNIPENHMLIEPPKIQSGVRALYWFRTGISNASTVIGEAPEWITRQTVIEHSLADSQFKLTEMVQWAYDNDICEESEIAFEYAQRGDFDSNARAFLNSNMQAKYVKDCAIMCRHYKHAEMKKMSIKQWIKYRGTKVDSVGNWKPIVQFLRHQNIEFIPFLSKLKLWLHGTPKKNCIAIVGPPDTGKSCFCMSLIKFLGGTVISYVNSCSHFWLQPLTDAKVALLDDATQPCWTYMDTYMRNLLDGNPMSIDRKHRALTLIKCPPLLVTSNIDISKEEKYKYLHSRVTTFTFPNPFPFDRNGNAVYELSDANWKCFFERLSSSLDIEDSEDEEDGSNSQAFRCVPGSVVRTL
T2 sequence (P04014 whole entry): as above

Molecule	effect on E1-E2 interaction of peptide added at 5 minutes ([1]; 50 μM final concentration, added 5 minutes after start of binding reaction, terminated at 60 minutes)	effect on E1-E2 interaction of peptide added at or after 10 minutes ([1]; 50 μM final concentration, added at or after 10 minutes)	inhibition of HPV16 E1-E2 interaction ([1]; increasing peptide concentrations, FIG. 6A)	mode of inhibition of E1-E2 interaction ([1]; inhibition plotted as a function of substrate concentration (data not shown))	inhibition of interaction between HPV11 E1 and HPV16 E2 [2]	inhibition of HPV11 E1/E2 interaction (HPV11 E1/E2 interaction)	inhibition of in vitro HPV16 DNA replication [3]	inhibition of HPV16 E2/HPV11 E1 dependent replication of the HPV11 origin [4]	binding result [5]
WKHMRLECAIYYKAR [E2N-WP15]	significant inhibition of subsequent E1-E2 interaction	only a minimal effect on the stability of this E1-E2 interaction	comparable inhibition of E1-E2 interaction	competitive inhibition	effectively inhibited	effectively inhibited	could effectively inhibit in vitro replication	approximately the same effectiveness as its inhibition of HPV16 E1/E2 mediated in vitro replication	
HPV11 E2 (other) MEAIAKRLDACQDQLLELYEENSIDIHKHIMHWKCIRLESVLLHKAKQMGLSHIGLQVVPPLTVSETKGHNAIEMQMHLESLAKTQYGVEPWTLQDTSYEMWLTPPKRCFKKQGNTVEVKFDGCEDNVMEYVVWTHIYLQDNDSWVKVTSSVDAKGIYYTCGQFKTYYVNFNKEAQKYGSTNHWEVCYGSTVICSPASVSSTVREVSIAEPTTYTPAQTTAPTVSACTTEDGVSAPPRKRARGPSTNNTLCVANIRSVDSTINNIVTDNYNKHQRRNNCHSAATPIVQLQGDSNCLKCFRYRLNDKYKHLFELASSTWHWASPEAPHKNAIVTLTYSSEEQRQQFLNSVKIPPTIRHKVGFMSLHLL									no binding
